Laboratory results as given in ChEMBL document CHEMBL4507303, “Data for DCP probe TP-004” (2021).

What was measured:
[1] = molecular target: 5-hydroxytryptamine receptor 2A (Homo sapiens) (UniProt P28223); settings: Compound concentration 10.0 uM
[2] = molecular target: NUAK family SNF1-like kinase 2 (Homo sapiens) (UniProt Q9H093); settings: Compound concentration 1000.0 nM
[3] = molecular target: Receptor-type tyrosine-protein kinase FLT3 (Homo sapiens) (UniProt P36888); settings: Compound concentration 1000.0 nM
[4] = tested on: Mast/stem cell growth factor receptor Kit (Homo sapiens), P10721 [D816V]; settings: Compound concentration 1000.0 nM
[5] = molecular target: Calcium/calmodulin-dependent protein kinase type II subunit delta (Homo sapiens) (UniProt Q13557); settings: Compound concentration 1000.0 nM
[6] = molecular target: 5-hydroxytryptamine receptor 5A (Homo sapiens) (UniProt P47898); settings: Compound concentration 10.0 uM
[7] = molecular target: Mitogen-activated protein kinase kinase kinase 6 (Homo sapiens) (UniProt O95382); settings: Compound concentration 1000.0 nM
[8] = molecular target: Tyrosine-protein kinase HCK (Homo sapiens) (UniProt P08631); settings: Compound concentration 1000.0 nM
[9] = tested on: eIF-2-alpha kinase GCN2 (Homo sapiens), Q9P2K8 [S808G]; settings: Compound concentration 1000.0 nM
[10] = molecular target: Aurora kinase A (Homo sapiens) (UniProt O14965); settings: Compound concentration 1000.0 nM
[11] = molecular target: Serine/threonine-protein kinase TNNI3K (Homo sapiens) (UniProt Q59H18); settings: Compound concentration 1000.0 nM
Chain of Serine/threonine-protein kinase TNNI3K (Homo sapiens) (Q59H18 whole entry): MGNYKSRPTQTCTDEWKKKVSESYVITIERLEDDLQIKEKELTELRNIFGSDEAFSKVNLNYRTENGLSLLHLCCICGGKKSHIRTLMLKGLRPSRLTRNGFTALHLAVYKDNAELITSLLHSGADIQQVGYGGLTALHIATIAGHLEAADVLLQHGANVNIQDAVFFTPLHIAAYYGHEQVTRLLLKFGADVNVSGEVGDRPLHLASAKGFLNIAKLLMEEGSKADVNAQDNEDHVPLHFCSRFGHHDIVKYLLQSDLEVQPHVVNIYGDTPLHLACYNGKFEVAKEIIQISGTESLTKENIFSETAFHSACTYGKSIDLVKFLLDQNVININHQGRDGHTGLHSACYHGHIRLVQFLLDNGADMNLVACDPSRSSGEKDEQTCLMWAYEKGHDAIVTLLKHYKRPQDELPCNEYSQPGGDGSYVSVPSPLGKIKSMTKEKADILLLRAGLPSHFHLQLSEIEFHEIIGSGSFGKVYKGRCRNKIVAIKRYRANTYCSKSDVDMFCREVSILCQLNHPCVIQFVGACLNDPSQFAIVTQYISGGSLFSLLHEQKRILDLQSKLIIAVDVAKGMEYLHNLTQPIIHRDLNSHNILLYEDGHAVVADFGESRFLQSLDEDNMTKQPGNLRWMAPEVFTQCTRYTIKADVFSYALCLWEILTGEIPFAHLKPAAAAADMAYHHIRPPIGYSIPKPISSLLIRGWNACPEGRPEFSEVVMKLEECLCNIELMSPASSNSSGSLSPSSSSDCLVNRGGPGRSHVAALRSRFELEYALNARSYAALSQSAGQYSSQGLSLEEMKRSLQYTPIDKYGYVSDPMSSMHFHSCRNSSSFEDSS

[12] = molecular target: Serine/threonine-protein kinase B-raf (Homo sapiens) (UniProt P15056); settings: Compound concentration 1000.0 nM
Chain of Serine/threonine-protein kinase B-raf (Homo sapiens) (P15056 whole entry): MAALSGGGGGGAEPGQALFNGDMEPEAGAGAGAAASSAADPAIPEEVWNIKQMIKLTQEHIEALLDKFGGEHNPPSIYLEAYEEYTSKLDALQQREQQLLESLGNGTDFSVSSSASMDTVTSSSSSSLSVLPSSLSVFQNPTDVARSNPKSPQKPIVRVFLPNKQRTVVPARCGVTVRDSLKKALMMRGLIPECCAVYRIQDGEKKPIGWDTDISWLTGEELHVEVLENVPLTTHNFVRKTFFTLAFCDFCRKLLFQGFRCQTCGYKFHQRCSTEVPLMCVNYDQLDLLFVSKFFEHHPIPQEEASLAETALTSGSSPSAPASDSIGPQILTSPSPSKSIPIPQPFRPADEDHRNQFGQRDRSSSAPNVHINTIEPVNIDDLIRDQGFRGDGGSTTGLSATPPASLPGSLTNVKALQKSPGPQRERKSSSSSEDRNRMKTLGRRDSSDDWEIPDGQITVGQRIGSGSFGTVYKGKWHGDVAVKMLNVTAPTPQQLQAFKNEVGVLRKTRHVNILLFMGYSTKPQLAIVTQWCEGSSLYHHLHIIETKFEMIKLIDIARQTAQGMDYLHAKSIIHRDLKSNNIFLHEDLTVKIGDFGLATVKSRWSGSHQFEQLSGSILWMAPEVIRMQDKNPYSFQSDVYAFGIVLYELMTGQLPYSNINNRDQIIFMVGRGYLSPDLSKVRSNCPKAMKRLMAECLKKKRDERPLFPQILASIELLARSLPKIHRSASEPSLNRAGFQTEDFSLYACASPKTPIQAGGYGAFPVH

[13] = molecular target: Death-associated protein kinase 2 (Homo sapiens) (UniProt Q9UIK4); settings: Compound concentration 1000.0 nM
[14] = molecular target: Tyrosine-protein kinase ZAP-70 (Homo sapiens) (UniProt P43403); settings: Compound concentration 1000.0 nM
[15] = molecular target: Mitogen-activated protein kinase kinase kinase kinase 5 (Homo sapiens) (UniProt Q9Y4K4); settings: Compound concentration 1000.0 nM
[16] = molecular target: Serine/threonine-protein kinase PAK 1 (Homo sapiens) (UniProt Q13153); settings: Compound concentration 1000.0 nM
[17] = molecular target: Serine/threonine-protein kinase D2 (Homo sapiens) (UniProt Q9BZL6); settings: Compound concentration 1000.0 nM
[18] = molecular target: Mitogen-activated protein kinase kinase kinase kinase 4 (Homo sapiens) (UniProt O95819); settings: Compound concentration 1000.0 nM
Chain of Mitogen-activated protein kinase kinase kinase kinase 4 (Homo sapiens) (O95819 2-1239 limits assumed): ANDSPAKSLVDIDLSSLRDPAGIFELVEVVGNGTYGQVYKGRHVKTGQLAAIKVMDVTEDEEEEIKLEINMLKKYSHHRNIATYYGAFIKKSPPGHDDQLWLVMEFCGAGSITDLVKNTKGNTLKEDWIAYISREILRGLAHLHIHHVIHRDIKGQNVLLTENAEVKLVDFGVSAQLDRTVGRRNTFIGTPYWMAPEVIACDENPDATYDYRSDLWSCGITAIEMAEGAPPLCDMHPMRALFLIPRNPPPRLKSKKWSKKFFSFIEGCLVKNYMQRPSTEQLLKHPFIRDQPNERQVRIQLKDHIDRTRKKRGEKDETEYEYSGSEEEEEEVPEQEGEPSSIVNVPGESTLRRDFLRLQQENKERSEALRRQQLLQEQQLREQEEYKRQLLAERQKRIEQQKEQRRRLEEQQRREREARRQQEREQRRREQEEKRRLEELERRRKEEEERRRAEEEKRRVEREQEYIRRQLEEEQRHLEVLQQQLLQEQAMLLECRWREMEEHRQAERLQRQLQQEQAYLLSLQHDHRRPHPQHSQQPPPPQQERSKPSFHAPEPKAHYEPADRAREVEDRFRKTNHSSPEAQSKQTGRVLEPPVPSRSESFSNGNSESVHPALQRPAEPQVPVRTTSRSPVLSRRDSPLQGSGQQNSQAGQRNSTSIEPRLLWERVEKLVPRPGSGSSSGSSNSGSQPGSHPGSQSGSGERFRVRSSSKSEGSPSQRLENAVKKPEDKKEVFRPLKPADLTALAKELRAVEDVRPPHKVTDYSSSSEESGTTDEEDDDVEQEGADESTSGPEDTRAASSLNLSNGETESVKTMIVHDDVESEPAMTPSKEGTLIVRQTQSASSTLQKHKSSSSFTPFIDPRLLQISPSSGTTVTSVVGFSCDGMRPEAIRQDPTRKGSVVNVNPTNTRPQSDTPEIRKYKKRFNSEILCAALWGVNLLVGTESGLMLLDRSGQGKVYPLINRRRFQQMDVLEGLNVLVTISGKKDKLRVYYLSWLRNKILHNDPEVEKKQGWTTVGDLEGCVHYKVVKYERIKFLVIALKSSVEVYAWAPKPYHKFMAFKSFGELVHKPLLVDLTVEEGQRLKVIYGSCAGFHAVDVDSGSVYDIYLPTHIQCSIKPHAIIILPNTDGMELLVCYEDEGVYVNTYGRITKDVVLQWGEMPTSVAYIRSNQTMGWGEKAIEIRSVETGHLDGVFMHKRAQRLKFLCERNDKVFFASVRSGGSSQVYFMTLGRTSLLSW

[19] = molecular target: Non-receptor tyrosine-protein kinase TNK1 (Homo sapiens) (UniProt Q13470); settings: Compound concentration 1000.0 nM
[20] = molecular target: Dual serine/threonine and tyrosine protein kinase (Homo sapiens) (UniProt Q6XUX3); settings: Compound concentration 1000.0 nM
[21] = tested on: Fibroblast growth factor receptor 3 (Homo sapiens), P22607 [G697C]; settings: Compound concentration 1000.0 nM
[22] = molecular target: Mitogen-activated protein kinase kinase kinase 14 (Homo sapiens) (UniProt Q99558); settings: Compound concentration 1000.0 nM
[23] = molecular target: cGMP-dependent protein kinase 1 (Homo sapiens) (UniProt Q13976); settings: Compound concentration 1000.0 nM
[24] = molecular target: Death-associated protein kinase 3 (Homo sapiens) (UniProt O43293); settings: Compound concentration 1000.0 nM
[25] = molecular target: Protein kinase C theta type (Homo sapiens) (UniProt Q04759); settings: Compound concentration 1000.0 nM
Chain of Protein kinase C theta type (Homo sapiens) (Q04759 whole entry, looked up): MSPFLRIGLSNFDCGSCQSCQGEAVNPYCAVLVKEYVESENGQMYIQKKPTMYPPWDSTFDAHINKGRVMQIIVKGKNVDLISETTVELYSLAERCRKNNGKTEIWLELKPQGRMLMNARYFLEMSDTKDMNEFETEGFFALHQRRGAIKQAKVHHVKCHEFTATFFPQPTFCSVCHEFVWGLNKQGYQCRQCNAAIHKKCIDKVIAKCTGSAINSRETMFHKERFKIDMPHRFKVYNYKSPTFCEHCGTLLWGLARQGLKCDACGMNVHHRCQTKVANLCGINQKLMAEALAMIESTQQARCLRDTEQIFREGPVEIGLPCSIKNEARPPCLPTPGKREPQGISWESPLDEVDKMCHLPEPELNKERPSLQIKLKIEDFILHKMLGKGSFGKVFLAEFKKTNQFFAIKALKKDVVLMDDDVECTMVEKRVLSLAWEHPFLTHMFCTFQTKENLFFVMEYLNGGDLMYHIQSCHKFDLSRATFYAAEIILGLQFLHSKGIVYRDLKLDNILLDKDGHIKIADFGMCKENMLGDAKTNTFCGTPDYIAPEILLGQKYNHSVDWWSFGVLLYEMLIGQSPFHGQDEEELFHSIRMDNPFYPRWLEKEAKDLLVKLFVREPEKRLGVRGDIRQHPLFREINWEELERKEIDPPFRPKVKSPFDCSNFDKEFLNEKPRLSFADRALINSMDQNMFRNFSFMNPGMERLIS

[26] = molecular target: Ephrin type-B receptor 4 (Homo sapiens) (UniProt P54760); settings: Compound concentration 1000.0 nM
[27] = molecular target: Serine/threonine-protein kinase Nek1 (Homo sapiens) (UniProt Q96PY6); settings: Compound concentration 1000.0 nM
[28] = tested on: Receptor-type tyrosine-protein kinase FLT3 (Homo sapiens), P36888 [D835Y]; settings: Compound concentration 1000.0 nM
[29] = molecular target: Serine/threonine-protein kinase pim-1 (Homo sapiens) (UniProt P11309); settings: Compound concentration 1000.0 nM
Chain of Serine/threonine-protein kinase pim-1 (Homo sapiens) (P11309 whole entry, looked up): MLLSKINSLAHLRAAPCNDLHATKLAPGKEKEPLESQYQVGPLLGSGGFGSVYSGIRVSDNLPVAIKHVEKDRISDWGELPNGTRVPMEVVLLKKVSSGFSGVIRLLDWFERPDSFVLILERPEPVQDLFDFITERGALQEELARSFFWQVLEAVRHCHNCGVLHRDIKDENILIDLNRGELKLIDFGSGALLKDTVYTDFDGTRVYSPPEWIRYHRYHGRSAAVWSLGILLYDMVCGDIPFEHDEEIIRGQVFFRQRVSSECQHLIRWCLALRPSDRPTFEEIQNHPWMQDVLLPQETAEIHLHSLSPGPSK

[30] = molecular target: cAMP-dependent protein kinase catalytic subunit beta (Homo sapiens) (UniProt P22694); settings: Compound concentration 1000.0 nM
[31] = tested on: ALK tyrosine kinase receptor (Homo sapiens), Q9UM73 [L1196M]; settings: Compound concentration 1000.0 nM
[32] = molecular target: 5-hydroxytryptamine receptor 7 (Homo sapiens) (UniProt P34969); settings: Compound concentration 10.0 uM
[33] = molecular target: Mitogen-activated protein kinase 11 (Homo sapiens) (UniProt Q15759); settings: Compound concentration 1000.0 nM
[34] = molecular target: High affinity nerve growth factor receptor (Homo sapiens) (UniProt P04629); settings: Compound concentration 1000.0 nM
[35] = molecular target: Tyrosine-protein kinase SYK (Homo sapiens) (UniProt P43405); settings: Compound concentration 1000.0 nM
[36] = molecular target: Proto-oncogene tyrosine-protein kinase Src (Homo sapiens) (UniProt P12931); settings: Compound concentration 1000.0 nM
[37] = molecular target: Mitogen-activated protein kinase 7 (Homo sapiens) (UniProt Q13164); settings: Compound concentration 1000.0 nM
[38] = molecular target: Insulin-like growth factor 1 receptor (Homo sapiens) (UniProt P08069); settings: Compound concentration 1000.0 nM
[39] = tested on: Receptor-type tyrosine-protein kinase FLT3 (Homo sapiens), P36888 [R834Q]; settings: Compound concentration 1000.0 nM
[40] = molecular target: Casein kinase II subunit alpha' (Homo sapiens) (UniProt P19784); settings: Compound concentration 1000.0 nM
[41] = molecular target: Serine/threonine-protein kinase PRP4 homolog (Homo sapiens) (UniProt Q13523); settings: Compound concentration 1000.0 nM
Chain of Serine/threonine-protein kinase PRP4 homolog (Homo sapiens) (Q13523 whole entry): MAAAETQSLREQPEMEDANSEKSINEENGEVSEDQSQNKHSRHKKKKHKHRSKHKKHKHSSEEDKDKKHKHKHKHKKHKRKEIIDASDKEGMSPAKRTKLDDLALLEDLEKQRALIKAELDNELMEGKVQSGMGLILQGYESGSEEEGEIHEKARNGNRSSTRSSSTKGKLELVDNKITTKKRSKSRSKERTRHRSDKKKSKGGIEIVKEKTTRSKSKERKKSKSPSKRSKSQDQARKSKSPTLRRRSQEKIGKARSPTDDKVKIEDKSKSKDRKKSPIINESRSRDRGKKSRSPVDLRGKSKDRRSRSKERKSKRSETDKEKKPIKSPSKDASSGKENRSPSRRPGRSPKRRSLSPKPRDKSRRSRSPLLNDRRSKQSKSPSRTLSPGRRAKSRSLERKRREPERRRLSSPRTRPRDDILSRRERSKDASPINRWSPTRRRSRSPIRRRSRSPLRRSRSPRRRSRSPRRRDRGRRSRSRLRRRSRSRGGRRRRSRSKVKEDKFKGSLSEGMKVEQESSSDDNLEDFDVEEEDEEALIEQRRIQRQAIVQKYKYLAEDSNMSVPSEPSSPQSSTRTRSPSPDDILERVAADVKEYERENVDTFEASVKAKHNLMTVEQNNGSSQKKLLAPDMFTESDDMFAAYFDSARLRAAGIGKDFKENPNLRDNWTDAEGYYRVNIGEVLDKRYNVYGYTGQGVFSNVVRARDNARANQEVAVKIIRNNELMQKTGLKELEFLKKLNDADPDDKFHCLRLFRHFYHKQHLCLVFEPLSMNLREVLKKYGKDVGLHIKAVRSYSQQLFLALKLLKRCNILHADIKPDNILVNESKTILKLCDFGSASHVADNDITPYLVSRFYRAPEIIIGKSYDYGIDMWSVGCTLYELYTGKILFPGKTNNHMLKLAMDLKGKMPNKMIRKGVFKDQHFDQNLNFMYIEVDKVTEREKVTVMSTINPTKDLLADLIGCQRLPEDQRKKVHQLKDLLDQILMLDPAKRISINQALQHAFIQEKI

[42] = tested on: ALK tyrosine kinase receptor (Homo sapiens), Q9UM73 [C1156Y]; settings: Compound concentration 1000.0 nM
[43] = molecular target: Serine/threonine-protein kinase WNK2 (Homo sapiens) (UniProt Q9Y3S1); settings: Compound concentration 1000.0 nM
[44] = tested on: Tyrosine-protein kinase ABL1 (Homo sapiens), P00519 [Y253F]; settings: Compound concentration 1000.0 nM
[45] = molecular target: Alpha-2B adrenergic receptor (Homo sapiens) (UniProt P18089); settings: Compound concentration 10.0 uM

Cc1nc(N2CC[C@@H](O)C2)ncc1-c1cc(C(F)(F)F)cc2[nH]ncc12 [TP-004]
inhibition [1]: -5.62% | residual activity [2]: 67% | residual activity [3]: 67% | residual activity [4]: 100% | residual activity [5]: 100% | inhibition [6]: -2.1% | residual activity [7]: 68% | residual activity [8]: 100% | residual activity [9]: 76% | residual activity [10]: 87% | residual activity [11]: 87% | residual activity [12]: 73% | residual activity [13]: 100% | residual activity [14]: 65% | residual activity [15]: 75% | residual activity [16]: 100% | residual activity [17]: 79% | residual activity [18]: 82% | residual activity [19]: 100% | residual activity [20]: 88% | residual activity [21]: 90% | residual activity [22]: 68% | residual activity [23]: 77% | residual activity [24]: 100% | residual activity [25]: 100% | residual activity [26]: 100% | residual activity [27]: 100% | residual activity [28]: 80% | residual activity [29]: 100% | residual activity [30]: 79% | residual activity [31]: 98% | inhibition [32]: 10.8% | residual activity [33]: 100% | residual activity [34]: 56% | residual activity [35]: 100% | residual activity [36]: 95% | residual activity [37]: 83% | residual activity [38]: 100% | residual activity [39]: 73% | residual activity [40]: 91% | residual activity [41]: 100% | residual activity [42]: 100% | residual activity [43]: 41% | residual activity [44]: 70% | inhibition [45]: 12.5%
